In PubChem BioAssay AID2060624 (Molecular Pharmacology Branch, DTP, NCI, 2025):

System: 217524-143-R1-J4-PDC spheroids with HUVEC/MSC, viability
Assay: Anticancer human tumor 217524-143-R1-J4-PDC patient-derived pancreatic carcinoma cell line growth inhibition [CLK]
Settings: for IC50: curve of first compound; for viability, T/C: stronger effect = lower value
Summary of the method: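 Multi-cell-type spheroids combined patient-derived tumor cells with HUVEC endothelial cells and human mesenchymal stem cells. Paired agents were dosed in half-log steps down from about clinical Cmax, or from 10 microM where Cmax was unknown.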
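Note: spheroids exposed to agents for seven days before reading.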
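Throughout, for viability, T/C: 100% = DMSO vehicle control viability.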

COc1ccc([C@@H](O)c2cc(-c3ncnc4cc(N5CCOCC5)ccc34)c(F)cc2Cl)nn1 + CNC(=O)c1ccc(Nc2nc(OC3CCCC3)c3c(-c4ccc5nc(C)oc5c4)c[nH]c3n2)c(OC)c1
IC50 (second compound 0.0316 µM): 813 nM | IC50 (second compound 0.1 µM): < 31.6 nM | IC50 (second compound 0.316 µM): < 31.6 nM | IC50 (second compound 1 µM): < 31.6 nM | IC50 (second compound 3.16 µM): < 31.6 nM | IC50 (second compound 10 µM): < 31.6 nM | viability, T/C (second compound 0.0316 µM, first compound 0.0316 µM): 95.4% | viability, T/C (second compound 0.0316 µM, first compound 0.1 µM): 72% | viability, T/C (second compound 0.0316 µM, first compound 0.316 µM): 66% | viability, T/C (second compound 0.0316 µM, first compound 1 µM): 50.4% | viability, T/C (second compound 0.0316 µM, first compound 3.16 µM): 27.6% | viability, T/C (second compound 0.0316 µM, first compound 10 µM): 10.6% | viability, T/C (second compound 0.1 µM, first compound 0.0316 µM): 43.1% | viability, T/C (second compound 0.1 µM, first compound 0.1 µM): 34.6% | viability, T/C (second compound 0.1 µM, first compound 0.316 µM): 32% | viability, T/C (second compound 0.1 µM, first compound 1 µM): 27.9% | viability, T/C (second compound 0.1 µM, first compound 3.16 µM): 19.3% | viability, T/C (second compound 0.1 µM, first compound 10 µM): 9.43% | viability, T/C (second compound 0.316 µM, first compound 0.0316 µM): 39.8% | viability, T/C (second compound 0.316 µM, first compound 0.1 µM): 28.4% | viability, T/C (second compound 0.316 µM, first compound 0.316 µM): 27.4% | viability, T/C (second compound 0.316 µM, first compound 1 µM): 20.8% | viability, T/C (second compound 0.316 µM, first compound 3.16 µM): 13.3% | viability, T/C (second compound 0.316 µM, first compound 10 µM): 7.35% | viability, T/C (second compound 1 µM, first compound 0.0316 µM): 32% | viability, T/C (second compound 1 µM, first compound 0.1 µM): 22.9% | viability, T/C (second compound 1 µM, first compound 0.316 µM): 23.3% | viability, T/C (second compound 1 µM, first compound 1 µM): 13.6% | viability, T/C (second compound 1 µM, first compound 3.16 µM): 11.8% | viability, T/C (second compound 1 µM, first compound 10 µM): 5.29% | viability, T/C (second compound 3.16 µM, first compound 0.0316 µM): 25.6% | viability, T/C (second compound 3.16 µM, first compound 0.1 µM): 27% | viability, T/C (second compound 3.16 µM, first compound 0.316 µM): 20.2% | viability, T/C (second compound 3.16 µM, first compound 1 µM): 16.9% | viability, T/C (second compound 3.16 µM, first compound 3.16 µM): 10.3% | viability, T/C (second compound 3.16 µM, first compound 10 µM): 4.64% | viability, T/C (second compound 10 µM, first compound 0.0316 µM): 24.8% | viability, T/C (second compound 10 µM, first compound 0.1 µM): 23.6% | viability, T/C (second compound 10 µM, first compound 0.316 µM): 20.7% | viability, T/C (second compound 10 µM, first compound 1 µM): 13.8% | viability, T/C (second compound 10 µM, first compound 3.16 µM): 9.68% | viability, T/C (second compound 10 µM, first compound 10 µM): 5.01%
